Measurements reported in patent US6914045B2, “Glycopeptide antibiotics” (Wyeth Holdings Corporation, priority 2001, dated 2005).
In brackets after ≈: the same amount, converted by molar mass.

Tests used:
[1] = tested on: Enterococcus sp.; assay: in vitro antibacterial evaluation, MIC by broth dilution; type: cell-based; conditions: broth dilution, 18 hours at 35° C.
How it was run: (§1)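 Inoculum 5×10^5 CFU/mL; concentrations 64 to 0.06 μg/mL; MIC defined as lowest inhibitory level. Conducted by broth dilution under NCCLS guidelines.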

[2] = tested on: Escherichia coli; assay: as above; type: cell-based; conditions: 18 hours at 35° C.
How it was run: as §1

[3] = tested on: Staphylococcus sp.; assay: as above; type: cell-based; conditions: broth dilution, 18 hours at 35° C.
How it was run: as §1

[4] = tested on: Streptococcus sp.; assay: as above; type: cell-based; conditions: broth dilution, 18 hours at 35° C.
How it was run: as §1

[5] = tested on: Streptococcus pneumoniae (GC 1894); assay: acute lethal infection in mice; type: in vivo; conditions: female CD-1 mice, intraperitoneal challenge, intravenous 30 min. after infection, 7 day survival
How it was run: (§2)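 Female CD-1 mice (20±2 g) got an intraperitoneal bacterial challenge lethal to untreated controls within 24–48 hr. Compound was dosed intravenously 30 min after infection, five mice per dose. ED50 was calculated from 7-day survival pooled across 3 tests.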

[6] = clinical pathology (serum clinical chemistry) in mice; type: in vivo; conditions: CD-1 mice, 20 mg/kg intravenously daily for 9 days, sera day 10
Method: 20-day-old CD-1 mice were divided into a vehicle control group (5 mice) and a treatment group (5 mice). Samples of glycopeptide antibiotics were administered at 20 mg/kg intravenously daily for 9 days.

[7] = anatomic pathology (histopathology of heart and kidney) in mice; type: in vivo; conditions: CD-1 mice, 20 mg/kg intravenously daily for 9 days, necropsy day 10, microscopic histopathology
Method: Samples of tissues from necropsied mice were formalin-fixed, paraffin-embedded, sectioned, stained with hematoxylin and eosin, and examined microscopically. Histopathologic findings were recorded. These findings were subjectively graded on a scale corresponding to slight, mild, moderate, marked and severe as compared to untreated controls.

[8] = tested on: Enterococcus faecalis (GC 6189); assay: acute lethal infection in mice; type: in vivo; conditions: female CD-1 mice, intraperitoneal challenge, intravenous 30 min. after infection, 7 day survival
How it was run: as §2

[9] = tested on: Staphylococcus aureus-SMITH (GC 4543); assay: acute lethal infection in mice; type: in vivo; conditions: acute lethal infection, female CD-1 mice, intraperitoneal challenge, intravenous 30 min. after infection, 7 day survival
How it was run: as §2

SMILES: CC(c1ccccc1)C1NC(=O)CNC(=O)C(CO)NC(=O)C(C(O)C2CNC(=N)N2C2OC(CO)C(O)C(O)C2O)NC(=O)C(C(O)C2CNC(=N)N2)NC(=O)C(Cc2ccc(OC3OC(CO)C(OC4OC5COC6(OC5C(O)C4O)C4CC5CC(C4)CC6C5)C(O)C3O)cc2)NC1=O (stereo not drawn) [Example 105, Cyclo[glycyl-β-methylphenylalanyl-O-[4-O-[4,6-O-(2-adamantylidene)hexopyranosyl]hexopyranosyl]tyrosyl-3-(2-iminoimidazolidin-4-yl)seryl-3-(3-hexopyranosyl-2-iminoimidazolidin-4-yl)serylseryl]]
- MIC Enterococcus faecalis (ATCC 29212) ([1]; strain ATCC 29212): 1 to 2 µg/mL
- MIC Enterococcus faecalis (GC 2242) ([1]; strain GC 2242): 0.5 to 2 µg/mL
- MIC Enterococcus faecium (GC 2243) ([1]; strain GC 2243): 1 to 2 µg/mL
- MIC Enterococcus faecalis (GC 2691) ([1]; strain GC 2691): 1 to 2 µg/mL
- MIC Enterococcus faecalis (GC 3059) ([1]; strain GC 3059): 1 to 2 µg/mL
- MIC Enterococcus faecalis (GC 4552) ([1]; strain GC 4552): 1 to 2 µg/mL
- MIC Enterococcus faecalis (GC 4553) ([1]; strain GC 4553): 1 to 2 µg/mL
- MIC Enterococcus faecalis (GC 4554) ([1]; strain GC 4554): 1 to 2 µg/mL
- MIC Enterococcus faecium (GC 4556) ([1]; strain GC 4556): 0.5 to 2 µg/mL
- MIC Enterococcus faecium (GC 4557) ([1]; strain GC 4557): 1 to 2 µg/mL
- MIC Enterococcus avium (GC 4558) ([1]; strain GC 4558): 1 to 2 µg/mL
- MIC Enterococcus faecalis (GC 6189) ([1]; strain GC 6189): 1 to 2 µg/mL
- MIC Escherichia coli (GC 4559) ([2]; strain GC 4559): 32 µg/mL (≈ 22.4 µM)
- MIC Escherichia coli (GC 4560) ([2]; strain GC 4560): 0.5 to 2 µg/mL
- MIC Coagulase Negative Staphylococcus (GC 4547) [3]: 0.5 to 1 µg/mL
- MIC Coagulase Negative Staphylococcus (GC 4548) [3]: <0.5 to 1 µg/mL
- MIC Coagulase Negative Staphylococcus (GC 4549) [3]: 0.5 to 1 µg/mL
- MIC Coagulase Negative Staphylococcus (GC 4551) [3]: <0.5 to 1 µg/mL
- MIC Coagulase Negative Staphylococcus (GC 6257) [3]: 0.5 to 1 µg/mL
- MIC Staphylococcus aureus (ATCC 29213) [3]: <0.5 to 1 µg/mL
- MIC Staphylococcus aureus (GC 1131) [3]: 0.25 to 1 µg/mL
- MIC Staphylococcus aureus (GC 3051) [3]: 0.5 to 1 µg/mL
- MIC Staphylococcus aureus (GC 3053) [3]: 1 to 2 µg/mL
- MIC Staphylococcus aureus (GC 4541) [3]: <0.5 to 1 µg/mL
- MIC Staphylococcus aureus (GC 4542) [3]: 0.5 to 1 µg/mL
- MIC Staphylococcus aureus (GC 4544) [3]: 0.25 to 2 µg/mL
- MIC Staphylococcus aureus (GC 4545) [3]: <0.5 to 1 µg/mL
- MIC Staphylococcus aureus-SMITH (GC 4543) [3]: 0.25 to 1 µg/mL
- MIC Staphylococcus haemolyticus (GC 4546) [3]: <0.5 to 1 µg/mL
- MIC Staphylococcus haemolyticus (GC 4546) ([3]; strain GC 4546): <0.5 to 1 µg/mL
- MIC Coagulase Negative Staphylococcus (GC 4547) ([3]; strain GC 4547): 0.5 to 1 µg/mL
- MIC Coagulase Negative Staphylococcus (GC 4548) ([3]; strain GC 4548): <0.5 to 1 µg/mL
- MIC Coagulase Negative Staphylococcus (GC 4549) ([3]; strain GC 4549): 0.5 to 1 µg/mL
- MIC Coagulase Negative Staphylococcus (GC 4551) ([3]; strain GC 4551): <0.5 to 1 µg/mL
- MIC Coagulase Negative Staphylococcus (GC 6257) ([3]; strain GC 6257): 0.5 to 1 µg/mL
- MIC Streptococcus pneumoniae (ATCC 6301) ([4]; strain ATCC 6301): <0.06 µg/mL
- MIC Streptococcus pneumoniae (GC 1894) ([4]; strain GC 1894): <0.06 µg/mL
- MIC Streptococcus pneumoniae (GC 4565) ([4]; strain GC 4565): <0.06 µg/mL
- median effective dose (ED50), Streptococcus pneumoniae (GC 1894) [5]: 0.04 mg/kg
- Clinical Chemistry (Day 10) % of Control, ALT [6]: +480%
- Clinical Chemistry (Day 10) % of Control, BUN [6]: +35%
- Anatomical Pathology (Day 10), Heart [7]: +++
- Anatomical Pathology (Day 10), Kidney [7]: +++

SMILES: CCCC(C)C1OCC2OC(OC3C(CO)OC(Oc4ccc(CC5NC(=O)C(C(C)c6ccccc6)NC(=O)CNC(=O)C(CO)NC(=O)C(C(O)C6CNC(=N)N6C6OC(CO)C(O)C(O)C6O)NC(=O)C(C(O)C6CNC(=N)N6)NC5=O)cc4)C(O)C3O)C(O)C(O)C2O1 (stereo not drawn) [Example 111, Cyclo[glycyl-β-methylphenylalanyl-O-[4-O-[4,6-O-(2-methylpentylidene)hexopyranosyl]-hexopyranosyl]tyrosyl-3-(2-iminoimidazolidin-4-yl)seryl-3-(3-hexopyranosyl-2-iminoimidazolidin-4-yl)serylseryl]]
- MIC Enterococcus avium (GC 4558) ([1]; Enterococcus avium (GC 4558)): 2 µg/mL (≈ 1.45 µM)
- MIC Enterococcus faecalis (ATCC 29212) ([1]; Enterococcus faecalis (ATCC 29212)): 2 µg/mL (≈ 1.45 µM)
- MIC Enterococcus faecalis (GC 2242) ([1]; Enterococcus faecalis (GC 2242)): 1 µg/mL (≈ 0.726 µM)
- MIC Enterococcus faecalis (GC 4552) ([1]; Enterococcus faecalis (GC 4552)): 2 µg/mL (≈ 1.45 µM)
- MIC Enterococcus faecalis (GC 4553) ([1]; Enterococcus faecalis (GC 4553)): 2 µg/mL (≈ 1.45 µM)
- MIC Enterococcus faecalis (GC 4554) ([1]; Enterococcus faecalis (GC 4554)): 2 µg/mL (≈ 1.45 µM)
- MIC Enterococcus faecium (GC 2243) ([1]; Enterococcus faecium (GC 2243)): 1 µg/mL (≈ 0.726 µM)
- MIC Enterococcus faecium (GC 4556) ([1]; Enterococcus faecium (GC 4556)): 2 µg/mL (≈ 1.45 µM)
- MIC Enterococcus faecium (GC 4557) ([1]; Enterococcus faecium (GC 4557)): 0.5 µg/mL (≈ 0.363 µM)
- MIC Enterococcus faecalis (ATCC 29212) ([1]; strain ATCC 29212): 2 µg/mL (≈ 1.45 µM)
- MIC Enterococcus faecalis (GC 2242) ([1]; strain GC 2242): 1 µg/mL (≈ 0.726 µM)
- MIC Enterococcus faecium (GC 2243) ([1]; strain GC 2243): 1 µg/mL (≈ 0.726 µM)
- MIC Enterococcus faecalis (GC 4552) ([1]; strain GC 4552): 2 µg/mL (≈ 1.45 µM)
- MIC Enterococcus faecalis (GC 4553) ([1]; strain GC 4553): 2 µg/mL (≈ 1.45 µM)
- MIC Enterococcus faecalis (GC 4554) ([1]; strain GC 4554): 2 µg/mL (≈ 1.45 µM)
- MIC Enterococcus faecium (GC 4556) ([1]; strain GC 4556): 2 µg/mL (≈ 1.45 µM)
- MIC Enterococcus faecium (GC 4557) ([1]; strain GC 4557): 0.5 µg/mL (≈ 0.363 µM)
- MIC Enterococcus avium (GC 4558) ([1]; strain GC 4558): 2 µg/mL (≈ 1.45 µM)
- MIC Escherichia coli (ATCC 25922) ([2]; strain ATCC 25922): 32 µg/mL (≈ 23.2 µM)
- MIC Coagulase Negative Staphylococcus (GC 4547) [3]: 0.5 µg/mL (≈ 0.363 µM)
- MIC Coagulase Negative Staphylococcus (GC 4548) [3]: 1 µg/mL (≈ 0.726 µM)
- MIC Coagulase Negative Staphylococcus (GC 4549) [3]: 0.5 µg/mL (≈ 0.363 µM)
- MIC Coagulase Negative Staphylococcus (GC 4551) [3]: 1 µg/mL (≈ 0.726 µM)
- MIC Coagulase Negative Staphylococcus (ID-3941) [3]: 1 µg/mL (≈ 0.726 µM)
- MIC Staphylococcus aureus (ATCC 29213) [3]: 1 µg/mL (≈ 0.726 µM)
- MIC Staphylococcus aureus (GC 1131) [3]: 1 µg/mL (≈ 0.726 µM)
- MIC Staphylococcus aureus (GC 4541) [3]: 1 µg/mL (≈ 0.726 µM)
- MIC Staphylococcus aureus (GC 4542) [3]: 1 µg/mL (≈ 0.726 µM)
- MIC Staphylococcus aureus (GC 4544) [3]: 1 µg/mL (≈ 0.726 µM)
- MIC Staphylococcus aureus (GC 4545) [3]: 1 µg/mL (≈ 0.726 µM)
- MIC Staphylococcus aureus-SMITH (GC 4543) [3]: 1 µg/mL (≈ 0.726 µM)
- MIC Staphylococcus haemolyticus (GC 4546) [3]: 1 µg/mL (≈ 0.726 µM)
- MIC Staphylococcus aureus (GC 1131) ([3]; inoculum 5×10^5 CFU/mL, strain GC 1131): 1 µg/mL (≈ 0.726 µM)
- MIC Staphylococcus aureus (ATCC 29213) ([3]; strain ATCC 29213): 1 µg/mL (≈ 0.726 µM)
- MIC Staphylococcus aureus (GC 4541) ([3]; strain GC 4541): 1 µg/mL (≈ 0.726 µM)
- MIC Staphylococcus aureus (GC 4542) ([3]; strain GC 4542): 1 µg/mL (≈ 0.726 µM)
- MIC Staphylococcus aureus (GC 4544) ([3]; strain GC 4544): 1 µg/mL (≈ 0.726 µM)
- MIC Staphylococcus aureus (GC 4545) ([3]; strain GC 4545): 1 µg/mL (≈ 0.726 µM)
- MIC Staphylococcus haemolyticus (GC 4546) ([3]; strain GC 4546): 1 µg/mL (≈ 0.726 µM)
- MIC Coagulase Negative Staphylococcus (GC 4547) ([3]; strain GC 4547): 0.5 µg/mL (≈ 0.363 µM)
- MIC Coagulase Negative Staphylococcus (GC 4548) ([3]; strain GC 4548): 1 µg/mL (≈ 0.726 µM)
- MIC Coagulase Negative Staphylococcus (GC 4549) ([3]; strain GC 4549): 0.5 µg/mL (≈ 0.363 µM)
- MIC Coagulase Negative Staphylococcus (GC 4551) ([3]; strain GC 4551): 1 µg/mL (≈ 0.726 µM)
- MIC Coagulase Negative Staphylococcus (ID-3941) ([3]; strain ID-3941): 1 µg/mL (≈ 0.726 µM)
- MIC Staphylococcus aureus-SMITH (GC 4543) ([3]; strain SMITH GC 4543): 1 µg/mL (≈ 0.726 µM)
- MIC Streptococcus agalactiae (GC 4564) ([4]; Streptococcus agalactiae (GC 4564)): 1 µg/mL (≈ 0.726 µM)
- MIC Streptococcus pneumoniae (GC 4565) ([4]; Streptococcus pneumoniae (GC 4565)): 0.5 µg/mL (≈ 0.363 µM)
- MIC Streptococcus pyogenes (ID-3187) ([4]; Streptococcus pyogenes (ID-3187)): 0.5 µg/mL (≈ 0.363 µM)
- MIC Streptococcus agalactiae (GC 4564) ([4]; strain GC 4564): 1 µg/mL (≈ 0.726 µM)
- MIC Streptococcus pneumoniae (GC 4565) ([4]; strain GC 4565): 0.5 µg/mL (≈ 0.363 µM)
- MIC Streptococcus pyogenes (ID-3187) ([4]; strain ID-3187): 0.5 µg/mL (≈ 0.363 µM)
- median effective dose (ED50), Enterococcus faecalis (GC 6189) [8]: 0.28 mg/kg
- median effective dose (ED50), Staphylococcus aureus-SMITH (GC 4543) [9]: 0.14 mg/kg
- median effective dose (ED50), Streptococcus pneumoniae (GC 1894) [5]: 0.03 mg/kg
